From patent US20240165231A1, “CAR-T DELIVERY OF SYNTHETIC PEPTIDE THERAPEUTICS” (THE TRUSTEES OF THE UNIVERSITY OF PENNSYLVANIA, priority 2021, published 2024)
“Also recorded” adds a separate entry of the source.

What was measured:
TSA breast cancer cells = test: PD-L1 as readout of DNA damage response after liposomal PARPi mimetic peptides; format: cell-based; conditions: peptides in liposomes, 48 hours, flow cytometry
Procedure: PARP inhibitor peptides were computationally designed using methods as described in Example 2. Resulting PARP inhibitor (PARPi) mimetic peptides were encapsulated in liposomes and transfected into TSA breast cancer cells in vitro. 48 hours later, PD-L1 was assessed by flow cytometry as a readout of a DNA damage response. […] The PARP inhibitor olaparib was used as a positive control. […] In embodiments, the PARPi mimetic peptides may be introduced into a CAR construct for delivery to the tumor microenvironment via an engineered CAR-T cell.

B16 cells = test: Cell death after liposomal SMACm6 with or without TNF; format: cell-based
Procedure: SMAC peptides were generated using a rational design strategy. Peptides with the best binding and potency (as measured by induction of cell death) in a dose response assay were selected for testing. SMAC mimetic peptide compositions were encapsulated in liposomes and transfected into B16 or KP (lung adenocarcinoma) cells in vitro at various concentrations in the presence of 20 ng/mL of TNF. 24 hours later, cell death was assessed by flow cytometry. Peptide 6 (SMACm6; SEQ ID NO: 8) was selected for further analysis based on dose response in multiple cell lines.
The SMACm6 mimetic peptides were encapsulated in liposomes and transfected into B16 or KP cells in vitro at various concentrations with or without 20 ng/mL TNF.

STING [1] = test: BMDC stimulation with liposome-encapsulated STING peptides, CD86 as surrogate for STING activity; format: cell-based, mouse; conditions: peptides in liposomes, 48 hours, flow cytometry
Procedure: Six cGAMP mimetic peptides (also referred to herein as STING peptides) were selected to test for activity. […] BDMCs were prepared by harvesting bone marrow from mouse hindlimbs and culturing in media (RPMI+10% FBS in 30 ng/mL GM-CSF) for 4 days. BMDCs were then stimulated with potential STING agonist peptides encapsulated in liposomes (Lipofectamine 2000) and returned to culture with GM-CSF for 48 hours. BMDCs were then evaluated for expression of CD86 by flow cytometry as a surrogate for STING activity. A schematic of the study design is provided in the left panel of FIG. 15.

STING [2] = test: ST2-stimulated, Ova-loaded BMDCs (WT or STING KO) co-cultured with OT-I T cells; format: cell-based, mouse; conditions: for OT-I T cell Granzyme B / OT-I T cell IFNγ / OT-I T cell Ki67: 48 hours
Procedure: Activity of the STING agonist peptide ST2 was further characterized. BMDCs from wild type (WT) or STING knock-out (KO) mice were prepared as described above. Following stimulation with ST2, cells were loaded with Ova (SIINFEKL) peptide and then extensively washed to remove residual peptide. OT-I T cells specific for the Ova peptide were then added to BMDC cultures to assess DC activity and ability to stimulate CD8 T cell responses. OT-I T cell expression of Granzyme B (an indicator of cell killing activity), Ki67 (an indicator of cell proliferation), and IFNγ were assessed by flow cytometry 48 hours later.

| Substance | PD-L1 expression (TSA breast cancer cells) | CD86 expression in BMDCs (STING [1]) | other results |
| --- | --- | --- | --- |
| VPHPP [Pep3] | increased PD-L1 expression | – | – |
| AVPIGGGGGGGGGGGGGGGIPVA [SMACm6] | – | – | relative cell death (B16 cells; absence of TNF): no cell death was observed; relative cell death (B16 cells; presence of 20 ng/mL TNF, increasing concentrations): increasing relative cell death; TNF dependence of cell death induction (B16 cells; presence or absence of TNF): dependent on TNF signaling |
| IFEFPG [ST1] | – | increased CD86 expression in BMDCs at statistically significant levels over negative control | – |
| APLGG [Pep2] | increased PD-L1 expression | – | – |
| MFEYG [ST4] | – | increased CD86 expression in BMDCs at statistically significant levels over negative control | – |
| APLPP [Pep1] | increased PD-L1 expression | – | – |
| TFEYSG [ST3] | – | increased CD86 expression in BMDCs at statistically significant levels over negative control | – |
| CIFEFPGC [ST1C] | – | increased CD86 expression in BMDCs at statistically significant levels over negative control | – |
| LFILSG [ST2] | – | increased CD86 expression in BMDCs at statistically significant levels over negative control; also recorded: highest CD86 expression of the peptides tested | OT-I T cell Granzyme B (STING [2]; STING KO BMDCs): not significantly increased over liposome-only controls; OT-I T cell IFNγ (STING [2]; STING KO BMDCs): not significantly increased over liposome-only controls; OT-I T cell Ki67 (STING [2]; STING KO BMDCs): not significantly increased over liposome-only controls; OT-I T cell Granzyme B (STING [2]; WT BMDCs): significantly increased; OT-I T cell IFNγ (STING [2]; WT BMDCs): significantly increased; OT-I T cell Ki67 (STING [2]; WT BMDCs): significantly increased; STING dependence of T cell activation (STING [2]; WT versus STING KO): requires the STING pathway; also recorded: STING dependent |
| CAPLPPC [Pep1C] | increased PD-L1 expression | – | – |
| LFIKP [ST5] | – | increased CD86 expression in BMDCs at statistically significant levels over negative control | – |
